# Laboratory results: paper PMC12645191, “Dicarboxylate and dicarboxylic acid appended supramolecular self-associating amphiphiles as antimicrobial agents against high priority bacterial pathogens” (Organic & Biomolecular Chemistry, 2025)
# Values joined by “and” are separate entries in the source; they are usually repeats but may differ in a detail not shown here. Equal values may be shown once. Read-outs that look alike come from different tables or passages of the source.
# Experiments:
# K. pneumoniae M6 = test: inhibition of bacterial growth, OD600 after 20 h; format: cell-based, Klebsiella pneumoniae; details: SSA 5.0 mM, 2.5% ethanol, negative = enhanced growth; for inhibition at 5000 µM: Klebsiella pneumoniae, M6, 20 h, read-out: Percentage inhibition of bacterial growth, M6 (K. pneumoniae)
# Protocol: With the self-associative properties of 1–10 established, the antimicrobial activity of these SSAs were determined against a panel of clinically relevant, high-priority pathogens including: P. aeruginosa PAO1; Klebsiella pneumonia (K. pneumoniae) M6; E. coli NCTC 12923; Acinetobacter baumannii (A. baumannii) ATCC 17978; S. aureus ATCC 9144; Enterococcus faecalis (E. faecalis) NCTC 775; and Enterococcus faecium (E. faecium) NCTC 12204. […] However, it should be noted that the SSA stock solution was prepared in a H2O 5% EtOH solution, to ensure that the SSA aggregates formed were in line with those characterised within the scope of the SSA self-association studies.
# Section 3: Biological methods
# These methods were taken directly from UK Health and Security Office (UKHSA) standard […]
# Preparation of Luria Broth media (LB): Yeast extract (5.0 g), tryptone (10.0 g) and sodium chloride (10.0 g) were dissolved in dH₂O (1.0 L) then divided into bottles and autoclaved.
# Preparation of Luria Broth (LB) agar plates: Agar (6.0 g) was added to LB (400 mL) and autoclaved. Once cool, the LB agar was poured into sterile petri dishes under sterile conditions and allowed to set. LB plates were stored at 4 °C until use.
# Preparation of bacterial plates: Sterile LB agar plates were streaked using streaked using the desired bacteria i) Pseudomonas aeruginosa (P.aeruginosa) PAO1, ii) Klebsiella pneumoniae (K. pneumoniae) M6 iii) E. coli NCTC 12923 and iv) Acinetobacter baumannii (A. baumannii) ATCC 17978 and Gram-positive i) Staphylococcus aureus (S. aureus) ATCC 9144 ii) Enterococcus faecalis (E. faecalis) NCTC 775 and iii) Enterococcus faecium (E. faecium ) NCTC 12204, then incubated at 37 °C overnight.
# Preparation of Inoculum: An initial culture was made up by inoculating LB media (5 mL) with a single colony of bacteria under sterile conditions and incubated at 37 °C with shaking overnight. The following day, overnight bacterial cultures were subcultured into fresh LB medium to a starting OD600 of 0.01.
# Preparation of 96 well microplate for MIC50: The 1:100 cell suspension (150 µL) was dispensed into individual wells under sterile conditions. SSAs (30 µL) were added to the wells to equal a total volume of 180 µL in the wells. Six repeats of each concentration for each SSA were created each plate. The plates were sealed using parafilm, then incubated at 37 °C in a microplate reader for 20 hours. OD600 endpoint data was used to generate growth curves. […]
# [1] = bi-directional permeability in Caco-2 cell line; format: in vitro ADME, human; details: human; for efflux ratio at 2 h / recovery at 2 h: Caco-2, pH 7.4, Caco-2; for Papp A→B at 2 h / Papp B→A at 2 h: Caco-2, pH 7.4, Caco-2, 5 or 10 µM, HBSS pH 7.4, 2 hours
# Protocol: Metabolic stability was assessed in mouse and rat liver microsomes. Microsomes are subcellular fractions of hepatocytes and contain CYP450s, the predominant enzymes involved in first-pass metabolism.[66] […] A plasma protein binding assay was performed to assess the extent of compound binding to plasma proteins. This is key as only unbound compound is free to distribute and exert a pharmacological effect. […] To assess the potential for this sub-class of SSAs to be developed as drugs for oral administration, Caco-2 permeability assays were also performed, as a cellular model indicative of human intestinal permeability. […]
# Sample analysis was by electrospray ionisation. […]
# Bi-directional Permeability in Caco-2 Cell Line:
# The bi-directional permeability in Caco-2 cell lines was determined by seeding cells onto an HTS Transwell plate. Cells were cultivated for 14-18 days in a cell culture incubator at 37 °C, 5 % CO2, 95 % relative humidity. Cell culture medium was replaced every other day. To assess monolayer integrity the transepithelial electrical resistance (TEER) across the monolayer was measured using Millicell Epithelial volt-ohm meter prior to assay and Lucifer yellow (LY) fluorescence measurement post-assay.
# Test and control compounds were prepared in DMSO and diluted in Hank’s Balanced Saline […]
# Solution (HBSS, pH 7.4) to a final concentration of 5 or 10 µM. Compound was added to the […]
# donor compartment of the transwell plate for both apical to basolateral (A>B) and basolateral […]
# to apical (B>A) measurements, with blank HBSS being added to the receiver compartment.
# The transwell plate was then incubated at 37 °C, 5 % CO2 for 2 hours.
# [2] = metabolic stability in liver microsomes; format: in vitro ADME, mouse; details: for microsomal CLint at 1 µM: read-out: in vitro CLint; for half-life at 1 µM: read-out: in vitro t1/2; for CLint scaled at 1 µM: liver microsomes, read-out: Scale-up CLint
# Protocol: Metabolic stability was assessed in mouse and rat liver microsomes. Microsomes are subcellular fractions of hepatocytes and contain CYP450s, the predominant enzymes involved in first-pass metabolism.[66] […] A plasma protein binding assay was performed to assess the extent of compound binding to plasma proteins. This is key as only unbound compound is free to distribute and exert a pharmacological effect. […] To assess the potential for this sub-class of SSAs to be developed as drugs for oral administration, Caco-2 permeability assays were also performed, as a cellular model indicative of human intestinal permeability.
# Section 3: Biological methods […]
# In vitro Absorption, Distribution and Metabolism
# These studies were performed by Contract Research Organisation (CRO) Pharmaron. The methodology provided within the ESI is published within the express permission of this organisation. The percentage of a compound recovered during the analysis process should be 100 %; any deviation from this value indicates experimental limitations such as unintended potential non-specific binding events to experimental equipment, solubility issues, etc.
# Metabolic Stability in Rat and Mouse Liver Microsomes:
# The metabolic stability of compounds at a concentration of 1 µM, in rat and mouse liver […]
# / mL) in the presence and absence of cofactor (NADPH) at 37 °C. Aliquots of each incubation were removed at 0.5, 5, 15, 30 and 60 minutes. The reaction was stopped by the addition of 5 volumes of cold acetonitrile containing analytical internal standard (IS).
# Samples were then centrifuged at 3 °C, 220 g for 40 minutes to remove cell debris. The supernatant was aliquoted and added to ultra-pure H2O in a 1:1 ratio in preparation for LC- […]
# Samples were analysed using a Shimadzu liquid chromatography system coupled to a Triple Quad 6500+ mass spectrometry (AB Inc.) Separation of compounds was achieved using an HSS T3 column (50 x 2.1 mm) at a temperature of 40 °C and a binary mobile phase gradient […]
# at a flow rate of 0.7 mL/min. […]
# acid in water) and 5 % solvent B (0.1 % formic acid in acetonitrile). […]
# solvent B at 0.7 minutes, held for 0.5 minutes and then immedi ately returned to initial conditions. Sample analysis was by electrospray ionisation. […]
# [3] = mouse liver microsomes, 1 µM, 0.5 mg protein/mL
efflux ratio at 2 h [1],Papp A→B at 2 h [1],Papp B→A at 2 h [1],recovery at 2 h ([1]; read-out: Recovery (%) AP-BL),recovery at 2 h ([1]; read-out: Recovery (%) BL-AP),Hepatic Extraction Ratio (ER) ([2]; mouse),Predicted Hepatic CLH ([2]; mouse),"microsomal CLint at 1 µM [2, 3]","half-life at 1 µM [2, 3]","Remaining percentage ([2]; mouse, +Cofactors, 0.5 min)","Remaining percentage ([2]; mouse, +Cofactors, 5 min)","Remaining percentage ([2]; mouse, +Cofactors, 15 min)","Remaining percentage ([2]; mouse, +Cofactors, 30 min)","Remaining percentage ([2]; mouse, +Cofactors, 60 min)","Remaining percentage ([2]; mouse, -Cofactors, 0.5 min)","Remaining percentage ([2]; mouse, -Cofactors, 60 min)",CLint scaled at 1 µM ([2]; mouse),Structure (SMILES),inhibition at 5000 µM (K. pneumoniae M6),"Percentage inhibition of bacterial growth, M6 (K. pneumoniae) (K. pneumoniae M6)",further results
1.93,0.17 ×10⁻⁶ cm/s,0.32 ×10⁻⁶ cm/s,115%,106%,< 0.26,< 23.07 mL/min/kg,< 7.5 µL/min/mg,> 3.08 h,100.00%,101.88%,100.09%,97.61%,103.16%,100.00%,103.83%,< 31 mL/min/kg,O=C(O)CC[C@H](NC(=O)Nc1ccc(Br)cc1)C(=O)O [SSA 9],,,"Percentage inhibition of bacterial growth, M6 (K. pneumoniae) (K. pneumoniae M6; listed as 9): 21.69% and 22%"
2.31,0.1 ×10⁻⁶ cm/s,0.24 ×10⁻⁶ cm/s,103%,87.4%,< 0.26,< 23.07 mL/min/kg,< 7.5 µL/min/mg,> 3.08 h,100.00%,99.16%,100.05%,98.24%,98.27%,100.00%,93.98%,< 31 mL/min/kg,O=C(O)CC[C@@H](NC(=O)Nc1ccc(C(F)(F)F)cc1)C(=O)O [SSA 3],15.4%,,"Percentage inhibition of bacterial growth, M6 (K. pneumoniae) (K. pneumoniae M6; listed as 3): 15%"
,,,,,< 0.26,< 23.07 mL/min/kg,,,100.00%,101.97%,102.46%,101.55%,102.31%,100.00%,102.89%,,O=C(O)CC[C@H](NC(=O)Nc1ccc(C(F)(F)F)cc1)C(=O)O [SSA 2],,17.56% and 18%,"Scale-up CLint ([2]; mouse): < 31.02 mL/min/kg; in vitro CLint [2, 3]: < 7.50 µL/min/mg; in vitro t1/2 [2, 3]: > 3.0797 h"
1.23,0.19 ×10⁻⁶ cm/s,0.23 ×10⁻⁶ cm/s,107%,89.7%,< 0.26,< 23.07 mL/min/kg,< 7.5 µL/min/mg,> 3.08 h,100.00%,100.09%,98.69%,98.11%,105.07%,100.00%,103.10%,< 31 mL/min/kg,O=C(O)CC[C@H](NC(=O)Nc1ccc(C(F)(F)F)cc1)C(=O)O [SSA 1],26.2%,26%,
